Source: patent US8119624B2, “Fused phenyl amido heterocyclic compounds” (Pfizer Inc., priority 2006, dated 2012)
Where two headings read alike, the source gives them in different places.

Target: T1, Full-length glucokinase (beta cell isoform) (Homo sapiens, UniProt P35557)
T1 construct: Full-length glucokinase (beta cell isoform) was His-tagged at N-terminus; His tag (N); made in house
T1 sequence (P35557 1-465): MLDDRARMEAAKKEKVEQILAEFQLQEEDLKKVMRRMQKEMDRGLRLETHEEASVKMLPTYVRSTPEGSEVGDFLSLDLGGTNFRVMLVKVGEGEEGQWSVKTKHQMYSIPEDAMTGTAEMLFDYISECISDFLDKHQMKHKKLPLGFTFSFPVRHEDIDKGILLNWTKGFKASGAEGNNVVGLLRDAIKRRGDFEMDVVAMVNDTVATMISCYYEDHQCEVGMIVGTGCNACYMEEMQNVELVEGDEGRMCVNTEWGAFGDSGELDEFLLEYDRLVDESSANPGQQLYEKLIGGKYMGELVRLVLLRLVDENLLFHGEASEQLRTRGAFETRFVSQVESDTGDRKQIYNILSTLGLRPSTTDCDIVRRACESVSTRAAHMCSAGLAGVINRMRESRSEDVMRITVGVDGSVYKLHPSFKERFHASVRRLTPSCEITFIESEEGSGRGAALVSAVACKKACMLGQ
Experiment: Glucokinase biochemical assay (PK/LDH-coupled, NADH depletion at 340 nm): % activation, EC50, % max activation
Details: 5 mM glucose; for activation at 10 µM: read-out: % Activation at 10 uM; for EC50: read-out: EC50; for Emax: fitted maximum activation, read-out: % Max Activation
Outline: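 N-terminally His-tagged full-length human beta-cell glucokinase, room temperature, 5 mM glucose, 1 mM ATP, PK/LDH-coupled with 0.7 mM NADH, 1% DMSO final. Initial velocity from the 200–900 s slope of A340 decline. % activation = (Va/Vo−1)×100, measured across compound concentrations.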

[1] = 10 uM compound, % Activation=(Va/Vo−1)×100
[2] = compound at 10 uM, 1 mM ATP, room temperature

SMILES	activation at 10 µM [1] [%]	EC50 (GK activation) [µM]	Emax [%]	EC50 (1 mM ATP, room temperature) [µM]	activation at 10 µM [2] [%]	Emax (1 mM ATP) [%]
Cc1cc2c(Oc3ccc(C(=O)N(C)C)nc3)cc(C(=O)Nc3cnn(C)n3)cc2o1 [Example 278, N,N-Dimethyl-5-(2-methyl-6-((2-methyl-2H-1,2,3-triazol-4-yl)carbamoyl)-benzofuran-4-yloxy)picolinamide]	131	0.47	123			
Cc1cc2c(Oc3ccc(S(C)(=O)=O)cc3)cc(C(=O)Nc3ccon3)cc2o1 [Example 258, N-(Isoxazol-3-yl)-2-methyl-4-(4-(methylsulfonyl)phenoxy)-benzofuran-6-carboxamide]	99.7	5.8	142			
COCC1(C)Cc2c(Oc3ccc(C(=O)N(C)C)c(F)c3)cc(C(=O)Nc3ccn(C)n3)cc2O1 (stereo not drawn) [Example 234, 4-(4-Dimethylcarbamoyl-3-fluoro-phenoxy)-2-methoxymethyl-2-methyl-2,3-dihydro-benzofuran-6-carboxylic acid (1-methyl-1H-pyrazol-3-yl)-amide]	121	0.075	112			
Cn1ccc(NC(=O)c2cc(Oc3ccc(C(=O)N4CCOCC4)cc3)c3c(c2)OC(C)(C)C3)n1 [Example 47, 2,2-Dimethyl-4-[4-(morpholine-4-carbonyl)-phenoxy]-2,3-dihydro-benzofuran-6-carboxylic acid(1-methyl-1H-pyrazol-3-yl)-amide]	140	1.05	156			
Cc1cc2c(Oc3ccc(S(=O)(=O)N(C)C)c(F)c3)cc(C(=O)Nc3cnc(N(C)C)cn3)cc2o1 [Example 308, N-[5-(Dimethylamino)pyrazin-2-yl]-4-{4-[(dimethylamino)-sulfonyl]-3-fluorophenoxy}-2-methyl-1-benzofuran-6-carboxamide]	141	0.11	131			
CN(C)C(=O)c1ccc(Oc2cc(C(=O)Nc3cnn(C)n3)cc3c2CC(C)(C)O3)cc1F [Example 142, 4-(4-Dimethylcarbamoyl-3-fluoro-phenoxy)-2,2-dimethyl-2,3-dihydro-benzofuran-6-carboxylic acid (2-methyl-2H-[1,2,3]triazol-4-yl)-amide]	145	0.0528	130			
CC(Oc1cc(C(=O)Nc2ccn(C)n2)cc2c1CC(C)(C)O2)c1ccncn1 (stereo not drawn) [Example 86, 2,2-Dimethyl-4-(1-pyrimidin-4-yl-ethoxy)-2,3-dihydro-benzofuran-6-carboxylic acid (1-methyl-1H-pyrazol-3-yl)-amide]	124	4.8	159			
CC(Oc1cc(C(=O)Nc2ccn(C)n2)cc2c1CC(C)(C)O2)c1cnccn1 (stereo not drawn) [Example 82, 2,2-Dimethyl-4-(1-pyrazin-2-yl-ethoxy)-2,3-dihydro-benzofuran-6-carboxylic acid (1-methyl-1H-pyrazol-3-yl)-amide]	110	5.1	135			
Cc1ccc(NC(=O)c2cc(Oc3ccc(S(C)(=O)=O)cc3)c3cc(CN(C)C)oc3c2)nc1 [Example 319, 2-[(Dimethylamino)methyl]-N-(5-methylpyridin-2-yl)-4-[4-(methylsulfonyl)-phenoxy]-1-benzofuran-6-carboxamide]	59.7	5	90			
Cc1ccc(NC(=O)c2cc(Oc3ccc(S(C)(=O)=O)cc3)c3c(c2)C(=O)N(CC(C)C)C3)nc1 [Example 381, 2-Isobutyl-N-(5-methylpyridin-2-yl)-7-(4-(methylsulfonyl)-phenoxy)-3-oxoisoindoline-5-carboxamide]				3	81	132
Cc1ccc(NC(=O)c2cc(Oc3ccc(C(=O)N(C)C)c(F)c3)c3c(c2)OC(C)(CO)C3)nc1 (stereo not drawn) [Example 239, 4-(4-Dimethylcarbamoyl-3-fluoro-phenoxy)-2-hydroxymethyl-2-methyl-2,3-dihydro-benzofuran-6-carboxylic acid (5-methyl-pyridin-2-yl)-amide]	32.1	0.02	42			
Cc1ccc(NC(=O)c2cc(Oc3ccc(C(=O)N(C)C)nc3)c3c(c2)OC(C)(C)C3)nc1 [Example 165, 5-[2,2-Dimethyl-6-(5-methyl-pyridin-2-ylcarbamoyl)-2,3-dihydro-benzofuran-4-yloxy]-pyridine-2-carboxylic acid dimethylamide]	76.8	0.038	57			
Cc1ccc(NC(=O)c2cc(Oc3ccc(S(C)(=O)=O)cc3)c3sccc3c2)nc1 [Example 363, 7-(4-Methanesulfonyl-phenoxy)-benzo[b]thiophene-5-carboxylic acid(5-methyl-pyridin-2-yl)-amide]	52.3	7.65	99			
Cn1ccc(NC(=O)c2cc(Oc3cnc(C(=O)N4CC(F)C4)c(F)c3)c3c(c2)OC(C)(C)C3)n1 [Example 403, 4-(5-fluoro-6-(3-fluoroazetidine-1-carbonyl)pyridin-3-yloxy)-2,2-dimethyl-N-(1-methyl-1H-pyrazol-3-yl)-2,3-dihydrobenzofuran-6-carboxamide]				0.121	196	191
Cn1ccc(NC(=O)c2cc(OCc3ccccc3)c3c(c2)C(=O)N(C2CC2)C3)n1 [Example 377, 7-(Benzyloxy)-2-cyclopropyl-N-(1-methyl-1H-pyrazol-3-yl)-3-oxoisoindoline-5-carboxamide]					25.6	

The next lines start with the values.

activation at 10 µM [1] [%]	EC50 (GK activation) [µM]	Emax [%]	EC50 (1 mM ATP, room temperature) [µM]	activation at 10 µM [2] [%]	Emax (1 mM ATP) [%]	SMILES
143	0.68	129				Cn1ccc(NC(=O)c2cc(Oc3ccc(C(=O)N4CC(O)C4)c(F)c3)c3c(c2)OC(C)(C)C3)n1 [Example 55, 4-[3-Fluoro-4-(3-hydroxy-azetidine-1-carbonyl)-phenoxy]-2,2-dimethyl-2,3-dihydro-benzofuran-6-carboxylic acid(1-methyl-1H-pyrazol-3-yl)-amide]
131	0.643	148				CN(C)C1CN(C(=O)c2ccc(Oc3cc(C(=O)Nc4ccn(C)n4)cc4c3CC(C)(C)O4)cc2F)C1 [Example 57, 4-[4-(3-Dimethylamino-azetidine-1-carbonyl)-3-fluoro-phenoxy]-2,2-dimethyl-2,3-dihydro-benzofuran-6-carboxylic acid(1-methyl-1H-pyrazol-3-yl)-amide]
285	0.54	258				Cn1ccc(NC(=O)c2cc(Oc3ccc(C(=O)NC4CCC4)c(F)c3)c3c(c2)OC(C)(C)C3)n1 [Example 74, 4-(4-Cyclobutylcarbamoyl-3-fluoro-phenoxy)-2,2-dimethyl-2,3-dihydro-benzofuran-6-carboxylic acid(1-methyl-1H-pyrazol-3-yl)-amide]
237	1.9	236				Cn1ccc(NC(=O)c2cc(Oc3ccc(C#N)c(F)c3)c3c(c2)OC(C)(C)C3)n1 [Example 183, 4-(4-Cyano-3-fluoro-phenoxy)-2,2-dimethyl-2,3-dihydro-benzofuran-6-carboxylic acid (1-methyl-1H-pyrazol-3-yl)-amide]
203	0.41	212				CNC(=O)c1ccc(Oc2cc(C(=O)Nc3ccn(C)n3)cc3c2CC(C)(C)O3)cn1 [Example 166, 5-[2,2-Dimethyl-6-(1-methyl-1H-pyrazol-3-ylcarbamoyl)-2,3-dihydro-benzofuran-4-yloxy]-pyridine-2-carboxylic acid methylamide]
66.5	> 10					Cn1ccc(NC(=O)c2cc(Oc3ccc(C(=O)O)nc3)c3c(c2)OC(C)(C)C3)n1 [Example 180, 5-[2,2-Dimethyl-6-(1-methyl-1H-pyrazol-3-ylcarbamoyl)-2,3-dihydro-benzofuran-4-yloxy]-pyridine-2-carboxylic acid]
325	0.15	283				Cn1ncc(NC(=O)c2cc(Oc3ccc(S(C)(=O)=O)c(F)c3)c3c(c2)OC(C)(C)C3)n1 [Example 117, 4-(3-Fluoro-4-methanesulfonyl-phenoxy)-2,2-dimethyl-2,3-dihydro-benzofuran-6-carboxylic acid (2-methyl-2H-[1,2,3]triazol-4-yl)-amide]
83.9	7.3	138				Cn1ccc(NC(=O)c2cc(Oc3ccc(S(C)(=O)=O)cc3)c3c(c2F)OC(C)(C)C3)n1 [Example 190, 7-Fluoro-4-(4-methanesulfonyl-phenoxy)-2,2-dimethyl-2,3-dihydro-benzofuran-6-carboxylic acid (1-methyl-1H-pyrazol-3-yl)-amide]
171	1.1	182				Cn1ccc(NC(=O)c2cc(Oc3ccc(C#N)nc3)c3c(c2)OC(C)(C)C3)n1 [Example 181, 4-(6-Cyano-pyridin-3-yloxy)-2,2-dimethyl-2,3-dihydro-benzofuran-6-carboxylic acid (1-methyl-1H-pyrazol-3-yl)-amide]
